Like-named read-outs stand apart in the source and are kept apart here.
Tests used:
[1] = biological target: T1, recombinant human Meningioma Expressed Antigen 5 (MGEA5), also referred to as O-GlcNAcase (OGA) (Homo sapiens, UniProt O60502); experiment: OGA biochemical assay: inhibition of FM-GlcNAc hydrolysis, fluorescence; protocol A (10 nM OGA, 1 h) or protocol B (2 nM OGA, 6 h); conditions: for IC50: read-out: Enzymatic hOGA, pIC50 (converted)
T1 construct: Full length OGA enzyme was purchased at OriGene (cat # TP322411); purchased OriGene TP322411
T1 sequence (O60502 1-916): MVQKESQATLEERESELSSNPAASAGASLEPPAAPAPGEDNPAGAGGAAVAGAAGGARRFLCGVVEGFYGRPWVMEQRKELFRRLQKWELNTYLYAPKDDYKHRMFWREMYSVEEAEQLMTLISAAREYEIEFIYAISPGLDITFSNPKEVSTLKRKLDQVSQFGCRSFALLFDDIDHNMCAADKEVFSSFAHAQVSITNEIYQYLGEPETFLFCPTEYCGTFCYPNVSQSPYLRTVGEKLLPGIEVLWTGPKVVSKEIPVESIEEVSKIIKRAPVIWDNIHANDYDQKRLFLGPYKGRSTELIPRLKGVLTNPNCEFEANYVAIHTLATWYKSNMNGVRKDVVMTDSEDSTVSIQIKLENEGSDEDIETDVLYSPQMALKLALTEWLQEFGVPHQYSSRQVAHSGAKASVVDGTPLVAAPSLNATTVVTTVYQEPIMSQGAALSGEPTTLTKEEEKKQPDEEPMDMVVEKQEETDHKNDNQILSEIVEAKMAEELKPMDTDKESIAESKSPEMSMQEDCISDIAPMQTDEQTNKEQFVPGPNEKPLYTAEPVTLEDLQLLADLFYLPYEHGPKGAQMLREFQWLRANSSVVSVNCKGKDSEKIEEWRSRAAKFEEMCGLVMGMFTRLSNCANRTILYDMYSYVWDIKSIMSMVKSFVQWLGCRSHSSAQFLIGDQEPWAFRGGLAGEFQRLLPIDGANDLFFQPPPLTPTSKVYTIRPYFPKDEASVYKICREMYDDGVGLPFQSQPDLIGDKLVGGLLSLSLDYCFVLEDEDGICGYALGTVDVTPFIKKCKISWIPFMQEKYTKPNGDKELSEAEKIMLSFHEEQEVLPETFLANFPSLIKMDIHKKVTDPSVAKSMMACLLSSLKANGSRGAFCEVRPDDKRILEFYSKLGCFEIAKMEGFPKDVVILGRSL
In short: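 Full-length human OGA in 200 mM citrate/phosphate pH 7.2 with 0.005% Tween-20, compound pre-incubated 60 min at RT, then 100 uM FM-GlcNAc (final); 10 nM enzyme for 1 h or 2 nM for 6 h at RT. Stopped with pH 11.0 carbonate; fluorescein read at ex 485/em 538 nm. IC50 and Hill coefficient from curve fit.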

[2] = system: OGA in HEK293 cells inducible for P301L mutant human Tau (isoform 2N4R); experiment: OGA cellular assay: immunocytochemical detection of O-GlcNAcylated proteins (CTD110.6 antibody) after 6 h incubation; type: cell-based; conditions: for Emax / EC50: Homo sapiens, HEK293, 6 h; for EC50: read-out: Cellular hOGA, pEC50 (converted)
Method: HEK293 cells inducible for P301L mutant human Tau (isoform 2N4R) were established at Janssen. Thiamet-G was used for both plate validation (high control) and as reference compound (reference EC50 assay validation). OGA inhibition is evaluated through the immunocytochemical (ICC) detection of O-GlcNAcylated proteins by the use of a monoclonal antibody (CTD110.6; Cell Signaling, #9875) detecting O-GlcNAcylated residues as previoulsy described (Dorfmueller et al. 2010 Chemistry & biology, 17:1250). Inhibition of OGA will result in an increase of O-GlcNAcylated protein levels resulting in an increased signal in the experiment. Cell nuclei are stained with Hoechst to give a cell culture quality control and a rough estimate of immediate compounds toxicity, if any. ICC pictures are imaged with a Perkin Elmer Opera Phenix plate microscope and quantified with the provided software Perkin Elmer Harmony 4.1.
Cells were propagated in DMEM high Glucose (Sigma, # D5796) following standard procedures. 2 days before the cell assay cells are split, counted and seeded in Poly-D-Lysine (PDL) coated 96-wells (Greiner, #655946) plate at a cell density of 12,000 cells per cm^2 (4,000 cells per well) in 100 μl of Assay Medium (Low Glucose medium is used to reduce basal levels of GlcNAcylation) (Park et al. 2014 The Journal of biological chemistry 289:13519). At the day of compound test medium from assay plates was removed and replenished with 90 μl of fresh Assay Medium. 10 μl of compounds at a 10 fold final concentration were added to the wells. Plates were centrifuged shortly before incubation in the cell incubator for 6 hours. DMSO concentration was set to 0.2%. Medium is discarded by applying vacuum. For staining of cells medium was removed and cells washed once with 100 μl D-PBS (Sigma, # D8537). From next step onwards unless other stated assay volume was always 50 μl and incubation was performed without agitation and at room temperature. Cells were fixed in 50 μl of a 4% paraformaldehyde (PFA, Alpha aesar, #043368) PBS solution for 15 minutes at room temperature. […] Before analysis samples were washed 2 times manually for 5 minutes in ICC base buffer.
Imaging is performed using Perkin Elmer Phenix Opera using a water 20× objective and recording 9 fields per well. Intensity readout at 488 nm is used as a measure of O-GlcNAcylation level of total proteins in wells. To assess potential toxicity of compounds nuclei were counted using the Hoechst staining. IC50-values are calculated using parametric non-linear regression model fitting. As a maximum inhibition Thiamet G at a 200 uM concentration is present on each plate. In addition, a concentration response of Thiamet G is calculated on each plate.

[3] = Enzymatic protocol A (10 nM OGA, 1 h)
[4] = Enzymatic protocol B (2 nM OGA, 6 h)

Structure (SMILES) | Emax [1, 3] [%] | IC50 [1, 3] [nM] | Emax [1, 4] [%] | IC50 [1, 4] [nM] | Emax ([2]; maximum = Thiamet G 200 uM) [%] | EC50 [2] [nM] | Enzymatic Emax (%) [1, 4] [%] | Enzymatic hOGA; pIC50 [1, 4] | Cellular hOGA; pEC50 [2] | Cellular Emax (%) ([2]; maximum = Thiamet G 200 uM)
CC(=O)Nc1ncc(CN2CCCC(Oc3cc(C)nc(C)c3)C2)s1 (stereo not drawn) [compound 14] | 100 | 8.13 | 101 | 9.12 | 118 | 112 |  |  |  | 
CC(=O)Nc1ncc(CN2CCC[C@@H](Oc3cc(C)nc(C)c3)C2)s1 [compound 15] |  |  | 102 | 8.51 | 98.4 | 1230 |  |  |  | 
CC(=O)Nc1ncc(CN2CCC[C@H](Oc3cc(C)nc(C)c3)C2)s1 [compound 16] |  |  | 101 | 70.8 | 115 | 63.1 |  |  |  | 
Cc1cc(O[C@@H]2CCCN(Cc3ccc4nccnc4c3)C2)cc(C)n1 [compound 18] |  |  | 97.9 | 417 | 12.4 | > 10000 |  |  |  | 
CC(=O)Nc1ncc(CN2CCCC(COc3cc(C)nc(C)c3)C2)s1 (stereo not drawn) [compound 20] |  |  | 101 | 6.76 | 111 | 6.31 |  |  |  | 
CC(=O)Nc1ncc(CN2CCCC(Cc3cc(C)nc(C)n3)C2)s1 (stereo not drawn) [compound 24] |  |  | 101 | 5.5 | 111 | 32.4 |  |  |  | 
CC(=O)Nc1ncc(CN2CCCC(Cc3cc(C)nc(C)c3)C2)s1 (stereo not drawn) [compound 27] |  |  | 99.6 | 2.45 | 118 | 5.25 |  |  |  | 
CC(=O)Nc1ncc(CN2CCC[C@H](Cc3cc(C)nc(C)c3)C2)s1 [compound 28] |  |  | 102 | 1.05 | 106 | 4.47 |  |  |  | 
CC(=O)Nc1ncc(CN2CCC[C@@H](Cc3cc(C)nc(C)c3)C2)s1 [compound 29] |  |  | 102 | 8.71 | 108 | 56.2 |  |  |  | 
CC(=O)Nc1ncc(CN2CCC(Cc3cc(C)nc(C)c3)C2)s1 (stereo not drawn) [compound 30] |  |  | 124 | 4.68 | 99.2 | 13.2 |  |  |  | 
CC(=O)Nc1ncc(CN2CCCC(Nc3cc(C)nc(C)c3)C2)s1 (stereo not drawn) [compound 31] |  |  | 102 | 3.24 | 90.2 | 20 |  |  |  | 
CC(=O)Nc1ncc(S(=O)(=O)N2CCC[C@H](Cc3cc(C)nc(C)c3)C2)s1 [compound 33] |  |  | 99.9 | 72.4 | 33.8 | > 1000 |  |  |  | 
CC(=O)Nc1ncc(CN2CC[C@@H](Cc3ncc(C)cc3C(F)(F)F)C2)s1 [compound 35] |  |  | 101 | 12.6 | 91.9 | 77.6 |  |  |  | 
CC(=O)Nc1ncc(CN2CC[C@H](Cc3cnc(C)c(C)c3)C2)s1 [compound 37] |  |  | 99.1 | 3.09 | 87.8 | 18.2 |  |  |  | 
CCOc1cc(C[C@H]2CCN(Cc3cnc(NC(C)=O)s3)C2)cc(C)n1 [compound 41] |  |  | 99.6 | 8.51 | 90.7 | 20.9 |  |  |  | 
CC(=O)Nc1ncc(CN2CC[C@H](Cc3ncccc3C#N)C2)s1 [compound 45] |  |  | 101 | 26.9 | 80.1 | 219 |  |  |  | 
CC(=O)Nc1ncc(CN2CC[C@H](Cc3ccc(C#N)cn3)C2)s1 [compound 46] |  |  | 101 | 21.9 | 85.9 | 47.9 |  |  |  | 
CC(=O)Nc1ncc(CN2CC[C@H](Cc3nnc(C)cc3C)C2)s1 [compound 47] |  |  | 96.9 | 40.7 | 61.6 | 288 |  |  |  | 
COc1cnc(C[C@H]2CCN(Cc3cnc(NC(C)=O)s3)C2)c(F)c1 [compound 48] |  |  | 100 | 12 | 83 | 66.1 |  |  |  | 
CC(=O)Nc1ncc(CN2CC[C@H](Cc3ccc(OC(F)(F)F)cn3)C2)s1 [compound 49] |  |  | 97.9 | 105 | 89.6 | 85.1 |  |  |  | 
CC(=O)Nc1ncc(CN2CC[C@H](Cc3ccc(C(F)F)cn3)C2)s1 [compound 50] |  |  | 99.4 | 77.6 | 87.4 | 55 |  |  |  | 
CC(=O)Nc1ncc(CN2CC[C@H](Cc3cc(C(F)(F)F)cnc3C)C2)s1 [compound 51] |  |  | 98.3 | 53.7 | 93.5 | 123 |  |  |  | 
CC(=O)Nc1ncc(CN2CC[C@H](Cc3cc(C)c(F)cn3)C2)s1 [compound 52] |  |  | 100 | 14.8 | 95.4 | 91.2 |  |  |  | 
CC(=O)Nc1ncc(CN2CCC(Cc3cc(C(F)(F)F)ccn3)C2)s1 (stereo not drawn) [compound 53] |  |  |  |  |  |  | 99.4 | 7.05 | 6.76 | 85.6
CC(=O)Nc1ncc(CN2CC[C@H](Cc3nc(C)ccc3C(F)(F)F)C2)s1 [compound 54] |  |  | 100 | 28.8 | 75.9 | 234 |  |  |  | 
